As usually defined, the IC50 is the concentration needed to halve the response being measured. A low value points to greater potency.

The test deals with T1, human Cot/Tpl2 kinase (Homo sapiens, UniProt P41279).
T1 construct: human Cot/Tpl2 kinase construct encoding residues 30-398; 6His (N); made in house; host or cells: Sf9 insect cells, baculovirus system (BD Biosciences)
T1 sequence (P41279 30-398): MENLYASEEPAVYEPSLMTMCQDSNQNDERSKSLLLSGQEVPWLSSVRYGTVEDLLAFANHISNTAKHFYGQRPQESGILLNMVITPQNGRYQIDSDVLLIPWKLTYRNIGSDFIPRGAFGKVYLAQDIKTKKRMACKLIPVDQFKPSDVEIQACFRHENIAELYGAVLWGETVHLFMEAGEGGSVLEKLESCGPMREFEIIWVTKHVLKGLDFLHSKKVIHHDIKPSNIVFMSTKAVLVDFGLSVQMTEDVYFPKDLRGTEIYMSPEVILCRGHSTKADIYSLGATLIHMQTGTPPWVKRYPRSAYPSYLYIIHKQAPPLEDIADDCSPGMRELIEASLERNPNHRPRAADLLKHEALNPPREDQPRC
Description: Tpl2/Cot kinase assay: GST-MEK1 phosphorylation detected by ELISA (DELFIA Eu). Format: biochemical. The note with it: 0.4 nM Tpl2, 35 nM GST-MEK1, 50 uM ATP, 1 h at 30° C. An outline of the steps:
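His-tagged human Tpl2 from Sf9 cells, Ni-affinity and size-exclusion purified (monomer). 0.4 nM Tpl2 with 35 nM GST-MEK1, 50 uM ATP, MOPS pH 7.2, 1% DMSO, 1 h at 30° C; EDTA stop. MEK1 Ser217/221 phosphorylation detected by anti-phospho-MEK1 and Eu-labelled secondary ELISA; IC50 fitted.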
(ELISA stands for enzyme-linked immunosorbent assay.)
As to `Cc1c(CNc2ccc3ncc(C#N)c(Nc4ccc(F)c(Cl)c4)c3c2)ncn1CCN1CCOCC1` [Example 129, 4-(3-chloro-4-fluorophenylamino)-6-((5-methyl-1-(2-morpholinoethyl)-1H-imidazol-4-yl)methylamino)quinoline-3-carbonitrile], the IC50 stood at 14 nM.

For the compound `Cc1ncn(CCN2CCOCC2)c1CNc1ccc2ncc(C#N)c(Nc3ccc(F)c(Cl)c3)c2c1` [Example 130, 4-(3-chloro-4-fluorophenylamino)-6-((4-methyl-1-(2-morpholinoethyl)-1H-imidazol-5-yl)methylamino)quinoline-3-carbonitrile], the IC50 was 260 nM.

`Cc1cc(NCCN2CCOCC2)cc2c(Nc3cccc(Br)c3)c(C#N)cnc12` [Example 131, 4-(3-bromophenylamino)-8-methyl-6-(2-morpholinoethylamino)quinoline-3-carbonitrile] yielded an IC50 of 16000 nM.

`Cc1nn(C)c(Cl)c1CNc1ccc2ncc(C#N)c(Nc3ccc(F)c(Cl)c3)c2c1` [Example 132, 6-((5-chloro-1,3-dimethyl-1H-pyrazol-4-yl)methylamino)-4-(3-chloro-4-fluorophenylamino)quinoline-3-carbonitrile]: the IC50 is 17300 nM.

For the compound `Cc1ncn(C)c1CNc1ccc2ncc(C#N)c(Nc3ccc(F)c(Cl)c3)c2c1` [Example 133, 4-(3-chloro-4-fluorophenylamino)-6-((1,4-dimethyl-1H-imidazol-5-yl)methylamino)quinoline-3-carbonitrile], the IC50 was 200 nM.

On to `CN(C)Cc1cc(NCCN2CCOCC2)cc2c(Nc3cccc(Br)c3)c(C#N)cnc12` [Example 134, 4-(3-bromophenylamino)-8-((dimethylamino)methyl)-6-(2-morpholinoethylamino)quinoline-3-carbonitrile], for which the IC50 is over 40000 nM.

The compound `Cn1cc(Cl)c(CNc2ccc3ncc(C#N)c(Nc4ccc(F)c(Cl)c4)c3c2)n1` [Example 135, 6-((4-chloro-1-methyl-1H-pyrazol-3-yl)methylamino)-4-(3-chloro-4-fluorophenylamino)quinoline-3-carbonitrile] gave an IC50 of over 40000 nM.

Take `N#Cc1cnc2ccc(NCc3nccn3CC(=O)O)cc2c1Nc1ccc(F)c(Cl)c1` [Example 136, 2-(2-((4-(3-chloro-4-fluorophenylamino)-3-cyanoquinolin-6-ylamino)methyl)-1H-imidazol-1-yl)acetic acid]: the IC50 is 64 nM.

In turn, `COC(=O)Cn1ccnc1CNc1ccc2ncc(C#N)c(Nc3ccc(F)c(Cl)c3)c2c1` [Example 137, Methyl 2-(2-((4-(3-chloro-4-fluorophenylamino)-3-cyanoquinolin-6-ylamino)methyl)-1H-imidazol-1-yl)acetate] registered an IC50 of 28 nM.

In turn, `N#Cc1cnc2ccc(NCc3nccn3CC(=O)N3CCOCC3)cc2c1Nc1ccc(F)c(Cl)c1` [Example 138, 4-(3-chloro-4-fluorophenylamino)-6-((1-(2-morpholino-2-oxoethyl)-1H-imidazol-2-yl)methylamino)quinoline-3-carbonitrile] registered an IC50 of 27 nM.

`N#Cc1cnc2ccc(NCc3nccn3CC(N)=O)cc2c1Nc1ccc(F)c(Cl)c1` [Example 139, 2-(2-((4-(3-chloro-4-fluorophenylamino)-3-cyanoquinolin-6-ylamino)methyl)-1H-imidazol-1-yl)acetamide] registered an IC50 of 99 nM.

As for `CN(C)C(=O)Cn1ccnc1CNc1ccc2ncc(C#N)c(Nc3ccc(F)c(Cl)c3)c2c1` [Example 140, 2-(2-((4-(3-chloro-4-fluorophenylamino)-3-cyanoquinolin-6-ylamino)methyl)-1H-imidazol-1-yl)-N, N-dimethylacetamide], the IC50 was 20 nM.

Consider `CN1CCN(C(=O)Cn2ccnc2CNc2ccc3ncc(C#N)c(Nc4ccc(F)c(Cl)c4)c3c2)CC1` [Example 141, 4-(3-chloro-4-fluorophenylamino)-6-((1-(2-(4-methylpiperazin-1-yl)-2-oxoethyl)-1H-imidazol-2-yl)methylamino)quinoline-3-carbonitrile], for which the midpoint of inhibition, the IC50, lay at 120 nM.

As for `CC(C)(C)OC(=O)N1CCC(NC(=O)Cn2ccnc2CNc2ccc3ncc(C#N)c(Nc4ccc(F)c(Cl)c4)c3c2)CC1` [Example 142, tert-butyl 4-(2-(2-((4-(3-chloro-4-fluorophenylamino)-3-cyanoquinolin-6-ylamino)methyl)-1H-imidazol-1-yl)acetamido)piperidine-1-carboxylate], 1800 nM corresponded to half-maximal inhibition (IC50).

With `N#Cc1cnc2ccc(NCc3nccn3CC(=O)NC3CCNCC3)cc2c1Nc1ccc(F)c(Cl)c1` [Example 143, 2-(2-((4-(3-chloro-4-fluorophenylamino)-3-cyanoquinolin-6-ylamino)methyl)-1H-imidazol-1-yl)-N-(piperidin-4-yl)acetamide], the 50% inhibitory concentration (IC50) was determined as 750 nM.

Regarding `N#Cc1cnc2ccc(NCc3ccccc3F)cc2c1Nc1ccc(F)c(Cl)c1` [Example 144, 6-(2-fluorobenzylamino)-4-(3-chloro-4-fluorophenylamino)quinoline-3-carbonitrile], the IC50 came out at 920 nM.

As for `N#Cc1cnc2ccc(NCc3cccc(F)c3)cc2c1Nc1ccc(F)c(Cl)c1` [Example 145, 6-(3-fluorobenzylamino)-4-(3-chloro-4-fluorophenylamino)quinoline-3-carbonitrile], the IC50 worked out at 2100 nM.

With `N#Cc1cnc2ccc(NCc3ccc(F)cc3)cc2c1Nc1ccc(F)c(Cl)c1` [Example 146, 6-(4-fluorobenzylamino)-4-(3-chloro-4-fluorophenylamino)quinoline-3-carbonitrile], the IC50 is 5300 nM.

For the compound `N#Cc1cnc2ccc(NCc3cccc(Br)c3)cc2c1Nc1ccc(F)c(Cl)c1` [Example 147, 6-(3-bromobenzylamino)-4-(3-chloro-4-fluorophenylamino)quinoline-3-carbonitrile], the IC50 stood at 1600 nM.

For the compound `N#Cc1cnc2ccc(NCc3cccc(OC(F)(F)F)c3)cc2c1Nc1ccc(F)c(Cl)c1` [Example 148, 6-(3-(trifluoromethoxy)benzylamino)-4-(3-chloro-4-fluorophenylamino)quinoline-3-carbonitrile], the IC50 turned out to be 2200 nM.

Consider `N#Cc1cnc2ccc(NCc3cccc(C(F)(F)F)c3)cc2c1Nc1ccc(F)c(Cl)c1` [Example 149, 6-(3-(trifluoromethyl)benzylamino)-4-(3-chloro-4-fluorophenylamino)quinoline-3-carbonitrile], for which half-maximal inhibition (IC50) required 1500 nM.

Consider `N#Cc1cnc2ccc(NCc3cccc(Oc4ccccc4)c3)cc2c1Nc1ccc(F)c(Cl)c1` [Example 150, 6-(3-phenoxybenzylamino)-4-(3-chloro-4-fluorophenylamino)quinoline-3-carbonitrile], for which the IC50 was 6400 nM.

Turning to `N#Cc1cnc2ccc(NCc3ccc(O)c(Cl)c3)cc2c1Nc1ccc(F)c(Cl)c1` [Example 151, 6-(3-chloro-4-hydroxybenzylamino)-4-(3-chloro-4-fluorophenylamino)quinoline-3-carbonitrile], the IC50 was 610 nM.

Consider `N#Cc1cnc2ccc(NCc3cccc(Cl)c3)cc2c1Nc1ccc(F)c(Cl)c1` [Example 152, 6-(3-chlorobenzylamino)-4-(3-chloro-4-fluorophenylamino)quinoline-3-carbonitrile], for which the IC50 is 1300 nM.

As to `N#Cc1cnc2c(Br)cc(NCc3nn[nH]c3-c3ccccc3C(F)(F)F)cc2c1Nc1ccc(F)c(Cl)c1` [Example 153, 8-bromo-4-[(3-chloro-4-fluorophenyl)amino]-6-[({5-[2-(trifluoromethyl)phenyl]-1H-1,2,3-triazol-4-yl}methyl)amino]quinoline-3-carbonitrile], the IC50 is 220 nM.

On to `CN(C)Cc1ccc2cc(CNc3ccc4ncc(C#N)c(Nc5ccc(F)c(Cl)c5)c4c3)[nH]c2c1` [Example 154, 4-(3-chloro-4-fluorophenylamino)-6-((6-((dimethylamino)methyl)-1H-indol-2-yl)methylamino)quinoline-3-carbonitrile], for which half-maximal inhibition (IC50) was put at 2500 nM.

`CN(C)C(=O)c1ccc2cc(CNc3ccc4ncc(C#N)c(Nc5ccc(F)c(Cl)c5)c4c3)[nH]c2c1` [Example 155, 2-((4-(3-chloro-4-fluorophenylamino)-3-cyanoquinolin-6-ylamino)methyl)-N,N-dimethyl-1H-indole-6-carboxamide]: inhibition was half-maximal at 1500 nM (IC50).

Regarding `CN(C)C(=O)c1ccc2cc(CNc3ccc4ncc(C#N)c(Nc5ccc(F)c(Cl)c5)c4c3)n(C)c2c1` [Example 156, 2-((4-(3-chloro-4-fluorophenylamino)-3-cyanoquinolin-6-ylamino)methyl)-N,N,1-trimethyl-1H-indole-6-carboxamide], 420 nM corresponded to half-maximal inhibition (IC50).

Compound `N#Cc1cnc2ccc(NCc3cc4ccccc4[nH]3)cc2c1Nc1ccc(F)c(Cl)c1` [Example 157, 6-((1H-indol-2-yl)methylamino)-4-(3-chloro-4-fluorophenylamino)quinoline-3-carbonitrile] came in with an IC50 of 8500 nM.

Regarding `N#Cc1cnc2cc(OCCCN3CCOCC3)c(NCc3cnc[nH]3)cc2c1Nc1ccc(F)c(Cl)c1` [Example 159, 6-((1H-imidazol-5-yl)methylamino)-4-(3-chloro-4-fluorophenylamino)-7-(3-morpholinopropoxy)quinoline-3-carbonitrile], the 50% inhibitory concentration (IC50) stood at 9200 nM.

With `N#Cc1cnc2cc(N3CCOCC3)c(NCc3cnc[nH]3)cc2c1Nc1ccc(F)c(Cl)c1` [Example 160, 6-((1H-imidazol-5-yl)methylamino)-4-(3-chloro-4-fluorophenylamino)-7-morpholinoquinoline-3-carbonitrile], the IC50 was over 40000 nM.

`CN1CCN(c2cc3ncc(C#N)c(Nc4ccc(F)c(Cl)c4)c3cc2NCc2cnc[nH]2)CC1` [Example 161, 6-((1H-imidazol-5-yl)methylamino)-4-(3-chloro-4-fluorophenylamino)-7-(4-methylpiperazin-1-yl)quinoline-3-carbonitrile]: the IC50 was over 40000 nM.

Values taken from patent US20060264460A1 (Wyeth, priority 2005, published 2006).
